Where a name gives a salt, the structure may show the parent alone.
Key:
[1] = test system: NCI-28H cells; test: Cytotoxicity assay (MTS) of NCI-28H cells treated with bleomycin, talc, talc bound to bleomycin (Example 16); type: cell-based; settings: 72 hrs
Procedure: Read absorbance (MTS assay) and calculate cells survival rate.
1. […] 500,000 cells/670,000=0.75 ml of cells/media mix need to take from flask and transfer to 9.25 ml media. […] Gently mix.
1. Bring back tubes from cold room to laboratory. Centrifuge 3200 rpm for 3 min. Take out supernatant.
3. Wash cells 2×300 μL DPBS, remove final wash.
6. Incubate plate 1 hr at 37° C., 5% CO2.

[2] = test system: NCI-2052H cells; test: Cytotoxicity assay (MTS) of NCI-2052H cells: bleomycin, mitomycin, doxorubicin, paclitaxel, talc, talc bound to drugs (Example 23); type: cell-based; settings: for Average readings: cells + drug, bleomycin / Average reading: cells + drug, mitomycin: absorbance 490 nm
[3] = test system: NCI-2052H cells; test: Repeated cytotoxicity experiment (MTS): NCI-2052H cells, mitomycin, talc, talc bound to mitomycin (Example 24); type: cell-based; settings: for Average reading: drug + cells: absorbance 490 nm
Procedure: Compare survival rate of cells.
1. […] Protocol how to do that see in previous cytotoxicity experiment.
(§1) 1. Centrifuge tubes at 3200 rpm for 3 min. Take out supernatant.
1. Incubate plate for 72 hrs at 37° C., 5% CO2.
3. Wash all wells 1×300 μL DPBS, remove final wash.

[4] = test system: NCI-28H cells; test: Cytotoxicity assay (MTS) of NCI-28H cells: carboplatin, mitomycin, gemcitabine, talc, talc bound to drugs (Example 22); settings: NCI-28H cells; for Average absorbance readings: cells + drug, mitomycin: 490 nm
Procedure: Read absorbance (MTS assay) and calculate cells survive rate. Compare survival rate
1. Set up 3 cytotoxicity plates for tomorrow experiment: trypsinize NCI-28H cells (T-75 flask, passage 12): • Remove old medium, wash cells with 7 ml DPBS, remove DPBS, add 2 ml trypsin, incubate plates for 1-2′, when cells detached add 6 ml fresh medium, mix cells and medium. • Count cells under the microscope using the glass slide. […] If we need 200 wells, in each well will be 5,000 cells in 0.1 ml; so total we need 1,000,000 cells in 20 ml.
2. […] Final solution is 500 μL of 500 μM carboplatin.
4. […] Final solution is 500 μL of 200 μM Gemcitabine.
as §1
3. Add 100 μL of each 8 preparations of diluted carboplatin (step 1 and 2) to the proper wells according to a plate layout.
4. Add 100 μL of each 8 preparations of diluted Gemcitabine (step 1, 2, 3) to the proper wells according to a plate layout.
6. Check the plate and start incubation at 37° C./5% CO2.
3. Wash all cells 1×300 μL DPBS, remove final wash.

[5] = Talc bound to HRP- and cold-Avidin, 48 hours in PBS containing 10% FBS (Example 14); type: physicochemical
Procedure: Purpose: To check how strong the conjugate of hot/cold Avidin to Talc is. […] Absorbance will be checked twice—once before washing with PBS containing 10% FBS and after 48 hours, washing will be done.
6. Weigh 8 mg of Avidin (cold Avidin), then resuspend it in 2 mL of PBS containing 40 ng/mL of “hot” Avidin. So the solution will now be 40 ng/mL hot Avidin+4 mg/mL of Cold Avidin. Label this tube as #1.
14. […] Two identical microplates need to be set up, labeling them as: plate #1 and plate #2. Design of the plate:
3. Wash both plates 3× with 300 μL PBS.
5. […] Mix constantly, cover plate with Aluminum foil.
6. Add 100 μL of TMB to samples in plate #1.
9. Read absorbance at 450 nm using the plate reader.
3. Collect 100 μL supernatant from samples except native controls and load on same plate.
4. Wash plate except supernatant samples 3× with 300 μL PBS.
6. Add 100 μL of TMB to all samples in plate#2.

Cc1c(N)nc([C@H](CC(N)=O)NC[C@H](N)C(N)=O)nc1C(=O)N[C@H](C(=O)N[C@H](C)[C@@H](O)[C@H](C)C(=O)N[C@H](C(=O)NCCc1nc(-c2nc(C(=O)NCCC[S+](C)C)cs2)cs1)[C@@H](C)O)[C@@H](O[C@@H]1OC(CO)[C@@H](O)C(O)C1O[C@H]1OC(CO)[C@@H](O)C(OC(N)=O)C1O)c1c[nH]cn1 (stereo partly drawn) [Bleomycin, Bleomycin sulfate Streptomyces verticillus]
% survival NCI-28H cells after treatment with BLEOMYCIN ([1]; 0.004 ug/ml): 92.41%
% survival NCI-28H cells after treatment with BLEOMYCIN ([1]; 0.015 ug/ml): 88.25%
% survival NCI-28H cells after treatment with BLEOMYCIN ([1]; 0.06 ug/ml): 93.38%
% survival NCI-28H cells after treatment with BLEOMYCIN ([1]; 0.24 ug/ml): 91.86%
% survival NCI-28H cells after treatment with BLEOMYCIN ([1]; 0.97 ug/ml): 86.19%
% survival NCI-28H cells after treatment with BLEOMYCIN ([1]; 3.9 ug/ml): 71.05%
% survival NCI-28H cells after treatment with BLEOMYCIN ([1]; 15.6 ug/ml): 74.60%
% survival NCI-28H cells after treatment with BLEOMYCIN ([1]; 62.5 ug/ml): 68.76%
% survival NCI-28H cells after treatment with BLEOMYCIN ([1]; 250 ug/ml): 47.13%
% survival NCI-28H cells after treatment with BLEOMYCIN ([1]; 1000 ug/ml): 24.92%
% survival from untreated cells ([2]; Bleomycin 0.24 ug/ml): 101.64%
% survival from untreated cells ([2]; Bleomycin 0.97 ug/ml): 97.34%
% survival from untreated cells ([2]; Bleomycin 3.9 ug/ml): 88.64%
% survival from untreated cells ([2]; Bleomycin 15.6 ug/ml): 51.72%
% survival from untreated cells ([2]; Bleomycin 62.5 ug/ml): 38.34%
% survival from untreated cells ([2]; Bleomycin 250 ug/ml): 20.89%
% survival from untreated cells ([2]; Bleomycin 1000 ug/ml): 14.62%
Average readings: cells + drug, bleomycin ([2]; bleomycin 0.24 μg/ml): 1.3454
Average readings: cells + drug, bleomycin ([2]; bleomycin 0.97 μg/ml): 1.2884
Average readings: cells + drug, bleomycin ([2]; bleomycin 3.9 μg/ml): 1.1733
Average readings: cells + drug, bleomycin ([2]; bleomycin 15.6 μg/ml): 0.6846
Average readings: cells + drug, bleomycin ([2]; bleomycin 62.5 μg/ml): 0.5075
Average readings: cells + drug, bleomycin ([2]; bleomycin 250 μg/ml): 0.2766
Average readings: cells + drug, bleomycin ([2]; bleomycin 1000 μg/ml): 0.1935

CO[C@@]12[C@H](COC(N)=O)C3=C(C(=O)C(C)=C(N)C3=O)N1C[C@@H]1N[C@@H]12 [mitomycin]
Average reading: drug + cells ([3]; Mitomycin 0.013 uM): 0.7907
Average reading: drug + cells ([3]; Mitomycin 0.064 uM): 0.8267
Average reading: drug + cells ([3]; Mitomycin 8 uM): 0.4217
Average reading: drug + cells ([3]; Mitomycin 40 uM): 0.2257
Average reading: drug + cells ([3]; Mitomycin 200 uM): 0.2243
Average reading: drug + cells ([3]; Mitomycin .0026 uM): 0.8637
% survival from untreated cells ([3]; mitomycin 0.0026 (uM per Table 103)): 78.87%
% survival from untreated cells ([3]; mitomycin 0.013 (uM per Table 103)): 72.21%
% survival from untreated cells ([3]; mitomycin 0.064 (uM per Table 103)): 75.49%
% survival from untreated cells ([3]; mitomycin 0.32 (uM per Table 103)): 75.10%
% survival from untreated cells ([3]; mitomycin 1.6 (uM per Table 103)): 61.83%
% survival from untreated cells ([3]; mitomycin 8 (uM per Table 103)): 38.51%
% survival from untreated cells ([3]; mitomycin 40 (uM per Table 103)): 20.61%
% survival from untreated cells ([3]; mitomycin 200 (uM per Table 103)): 20.49%
Average absorbance readings: cells + drug, mitomycin ([4]; mitomycin 0.0026 μM): 2.032
% survival cells after exposure to drug for 72 hrs (cells + drug only), mitomycin ([4]; mitomycin 0.0026 μM): 106.12%
Average absorbance readings: cells + drug, mitomycin ([4]; mitomycin 0.013 μM): 1.965
% survival cells after exposure to drug for 72 hrs (cells + drug only), mitomycin ([4]; mitomycin 0.013 μM): 102.65%
Average absorbance readings: cells + drug, mitomycin ([4]; mitomycin 0.064 μM): 1.8766
% survival cells after exposure to drug for 72 hrs (cells + drug only), mitomycin ([4]; mitomycin 0.064 μM): 98.03%
Average absorbance readings: cells + drug, mitomycin ([4]; mitomycin 8 μM): 0.3451
% survival cells after exposure to drug for 72 hrs (cells + drug only), mitomycin ([4]; mitomycin 8 μM): 18.03%
Average absorbance readings: cells + drug, mitomycin ([4]; mitomycin 40 μM): 0.52
% survival cells after exposure to drug for 72 hrs (cells + drug only), mitomycin ([4]; mitomycin 40 μM): 27.16%
Average absorbance readings: cells + drug, mitomycin ([4]; mitomycin 200 μM): 0.2464
% survival cells after exposure to drug for 72 hrs (cells + drug only), mitomycin ([4]; mitomycin 200 μM): 12.87%
Average reading: cells + drug, mitomycin ([2]; mitomycin 0.013 μM): 1.284
Average reading: cells + drug, mitomycin ([2]; mitomycin 0.064 μM): 1.199
Average reading: cells + drug, mitomycin ([2]; mitomycin 8 μM): 0.4142
Average reading: cells + drug, mitomycin ([2]; mitomycin 40 μM): 0.2305
Average reading: cells + drug, mitomycin ([2]; mitomycin 200 μM): 0.2098
Average reading: cells + drug, mitomycin ([2]; mitomycin .0026 μM): 1.424

Avidin: Avidin from egg white (Sigma); 60,000 m.w. egg-white protein that binds biotin
stability of binding of Avidin to talc [5]: unchanged at 48 hours

Source: patent US20190216956A1, “COMPOSITIONS FOR RADIOTHERAPY AND USES THEREOF” (priority 2016, published 2019)
